According to patent publication US20020115111A1, “Compounds” (SmithKline Beecham Corporation, priority 1994, published 2002):

Tests used:
[1] = target: T1, low affinity rolipram binding form of PDE IV (LPDE IV), human monocyte PDE IV (Homo sapiens, UniProt P27815); assay: PDE IV catalytic activity assay (low affinity form); type: biochemical; conditions: 1 μM [3H]cAMP as substrate
T1 construct: made in house; host or cells: yeast
Source text: (§1) Inhibition of PDE IV catalytic activity can thus be used as an index of the potency of compounds at LPDE IV.

[2] = test system: high affinity rolipram binding form of PDE IV (HPDE IV); assay: [3H]-rolipram binding assay (competition for high affinity site); set-up: species or system rat; conditions: for High/Low Ratio (IC50 high affinity form divided by IC50 low affinity form): HPDE IV IC50 / LPDE IV IC50; for IC50: competition with 1 nM [3H]-rolipram, 1 hour at 30° C.
Experimental: as §1
The assay was run for 1 hour at 30° C. The reaction was terminated and bound ligand was separated from free ligand using a Brandel cell harvester. Competition for the high affinity binding site was assessed under conditions that were identical to those used for measuring low affinity PDE activity, expect that [^3H]-cAMP was not present.

[3] = test system: TNFα production from isolated human monocytes vs acid secretion in isolated rabbit parietal glands; assay: therapeutic index, in vitro comparison: suppression of TNFα production vs stimulation of acid secretion; type: cell-based
Experimental: To determine acid secretion, the gastric glands in combination with [^14C]-aminopyrine, various concentrations of selective PDE IV inhibitors, and a threshold concentration of histamine (0.3-1.0 μM) were incubated at 37° C. on a horizontal shaker (110 cycles/min) for 20 minutes according to the procedures of Sack and Spenney (1982). Samples were then centrifuged and radioactivity in aliquots of the supernatant fraction and pellet were determined. Aminopyrine ratios were calculated as described by Sack and Spenney (1982). The data were expressed as a percent of a response produced by a maximal concentration of histamine (100 μM). EC50 values were determined by linear interpolation using the maximum response obtained for each compound.
TNFα inhibition was assessed in human peripheral blood monocytes which were purified (Collata) from freshly obtained buffy coats or plasma-phoresis residues of blood from normal human donors. Monocytes were plated at density of 1×10^6 cells/ml medium/well in 24-well multi-dishes. […]
Levels of TNFα were measured using a ELISA (Winston) employing a murine monoclonal anti-human TNFα antibody (see below) as the capture antibody and a polyclonal rabbit anti-human TNFα as the second antibody. […] TNFα levels in samples were calculated from a standard curve generated with recombinant human TNFα produced in E. coli. […]

acid secretion = conditions: rats, particularly in combination with an activator of adenylate cyclase such as histamine; cited from earlier work
[4] = clinical studies; cited from earlier work
[5] = test system: [3H]-rolipram binding sites in rat brain homogenates; assay: high affinity [3H]-rolipram binding sites in rat brain homogenates (Schneider 1986); conditions: Kd vs Ki
Source text: In 1986, Schneider and colleagues described the presence and characteristics of high affinity, stereoselective [^3H]-rolipram binding sites in rat brain homogenates, Although it was assumed that these binding sites represented the catalytic site of the rat brain “noncalmodulin-dependent, cAMP phosphodiesterase” (i.e. PDE IV), a striking anomaly was apparent in the data.

T1 sequence (P27815 1-686 isoform P27815-3): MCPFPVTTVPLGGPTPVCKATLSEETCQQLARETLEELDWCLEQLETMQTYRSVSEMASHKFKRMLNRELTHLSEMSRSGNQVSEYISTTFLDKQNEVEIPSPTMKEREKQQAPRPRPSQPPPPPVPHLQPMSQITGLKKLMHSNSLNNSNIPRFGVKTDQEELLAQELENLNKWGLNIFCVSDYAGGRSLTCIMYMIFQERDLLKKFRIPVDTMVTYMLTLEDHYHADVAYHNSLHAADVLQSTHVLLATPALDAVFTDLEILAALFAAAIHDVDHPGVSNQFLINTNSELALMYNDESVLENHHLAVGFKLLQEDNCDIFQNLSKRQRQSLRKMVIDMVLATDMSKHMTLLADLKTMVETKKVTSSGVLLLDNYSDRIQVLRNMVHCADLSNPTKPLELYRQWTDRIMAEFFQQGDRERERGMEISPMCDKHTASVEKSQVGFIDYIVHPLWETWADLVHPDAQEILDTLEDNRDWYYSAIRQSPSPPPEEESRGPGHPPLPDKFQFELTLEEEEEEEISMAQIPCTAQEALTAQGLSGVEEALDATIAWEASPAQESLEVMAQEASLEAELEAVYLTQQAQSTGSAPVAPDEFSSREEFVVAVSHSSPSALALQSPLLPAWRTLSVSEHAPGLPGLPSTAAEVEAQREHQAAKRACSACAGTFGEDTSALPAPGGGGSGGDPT

Row | Structure (SMILES) | IC50 [1] [nM] | High/Low Ratio (IC50 high affinity form divided by IC50 low affinity form) [2] | IC50 [2] [nM] | improvement in therapeutic index in comparison with R-rolipram [3] [fold] | effect on acid secretion (acid secretion) | side effects [4] | difference in affinity for the binding site versus effect on catalytic activity [5] [fold]
1 | COc1ccc([C@@H]2CC[C@H](C(=O)O)C2)cc1OC1CCCC1 (relative stereo) [cis-[3-(3-cyclopentyloxy-4-methoxyphenyl)cyclopentane-1-carboxylate]] | 2700 | – | – | – | – | – | –
2 | COc1ccc(C2CN(Cc3ccc(N)cc3)C(=O)N2)cc1OC1CCCC1 (stereo not drawn) [1-(4-aminobenzyl)-4-(3-cyclopentyloxy-4-methoxyphenyl)-2-imidazolidinone] | 1400 | 0.07 | 10 | – | – | – | –
3 | COc1ccc(C2CCC(c3nnn[nH]3)C2)cc1OC1CCCC1 (stereo not drawn) [1-(5-tetrazole)-3-(3-cyclopentyloxy-4-methoxyphenyl)cyclopentane] | 1100 | 0.0018 | 2 | – | – | – | –
4 | COC(=O)C1CC(C#N)(c2ccc(OC(F)F)c(OCC3CC3)c2)CCC1=O (stereo not drawn) [2-carbomethoxy-4-cyano-4-(3-cyclopropylmethoxy-4-difluoromethoxyphenyl)cyclohexan-1-one] | 140 | 3.571 | 500 | 100 | – | – | –
5 | COc1ccc(C2CCN(Cc3ccc(NC(=NC#N)SC)cc3)C2=O)cc1OC1CCCC1 (stereo not drawn) [3-(cyclopentyloxy-4-methoxyphenyl)-1-(4-N′-[N2-cyano-S-methyl-isothioureido]benzyl)-2-pyrrolidone] | 100 | 0.30 | 30 | – | – | – | –
6 | CCOC(=O)C=C1C[C@H](c2ccc(OC)c(OC3CCCC3)c2)CN1 [(R)-(+)-ethyl [4-(3-cyclopentyloxy-4-methoxyphenyl)pyrrolidine-2-ylidene]acetate] | 140 | 2.143 | 300 | – | – | – | –
7 | CCOC(=O)C=C1C[C@@H](c2ccc(OC)c(OC3CCCC3)c2)CN1 [(S)-(-)-ethyl[4-(3-cyclopentyloxy-4-methoxphenyl)pyrrolidine-2-ylidene]acetate] | 460 | .98 | 450 | – | – | – | –
8 | CC(C)Cn1c(=O)n(C)c(=O)c2[nH]cnc21 [IBMX, reference compound] | 29100 | 0.698 | 20300 | – | – | – | –
9 | COc1ccc(CCNC(=O)C(N)=O)cc1OC1CCCC1 [N-[2-(3-cyclopentyloxy-4-methoxyphenyl)ethyl]oxamide] | 890 | 0.013 | 12 | – | – | – | –
10 | CCCCOc1cc(CC2CNC(=O)N2)ccc1OC (stereo not drawn) [Ro 20-1724] | – | – | – | – | enhance acid secretion in rats | – | –
11 | N#CC1(c2ccc(OC(F)F)c(OCC3CC3)c2)CCC(O)CC1 (stereo not drawn) [cis-[4-cyano-4-(3-cyclopropylmethoxy-4-difluoromethoxyphenyl)cyclohexan-1-ol]] | 21 | – | 40 | 100 | – | – | –
12 | CCCCn1c(=O)c2c(ncn2CC(C)=O)n(CCCC)c1=O [denbufylline, 7-acetonyl,1,3-dibutylxanthine, reference compound] | – | – | 50 | – | – | may include pyrosis, nausea and emesis | –
13 | OCCN(CCO)c1nc(N2CCCCC2)c2nc(N(CCO)CCO)nc(N3CCCCC3)c2n1 [dipyridamole, 2,2′,2″,2′″-[(4,8-dipiperidinopyrimido[5,4-d]pyrimidine-2-6-diyl)dinitrilo]tetraethanol, reference compound] | 5200 | 6.25 | 32500 | – | – | – | –
14 | COc1ccc(C2CNC(=O)C2)cc1OC1CCCC1 (stereo not drawn) [rolipram] | – | – | – | – | enhance acid secretion in rats | has psychotropic activity and produces gastrointestinal effects, e.g., pyrosis, nausea and emesis | 1000
15 | COc1cc2c(cc1OC)-c1c/c(=N\c3c(C)cc(C)cc3C)n(C)c(=O)n1CC2 [trequinsin, 2,3,6,7-tetrahydro-2-(mesitylimino)-9,10 dimethoxy-3-methyl-4H-primido[6,1-a]isoquinoline-4-one, reference compound] | – | – | 5000 | – | – | – | –
